Results published in ChEMBL document CHEMBL3608244, “Left-Hand Side Exploration of Novel Bacterial Topoisomerase Inhibitors to Improve Selectivity against hERG Binding” (ACS Med Chem Lett, 2015).
Converted amounts (≈) assume the structure as drawn.

Columns and labels:
[1] = tested on: Mycobacterium tuberculosis; assay: Antimycobacterial activity against Mycobacterium tuberculosis H37Rv ATCC 27294 incubated for 7 days by microdilution method; type: functional; settings: H37Rv ATCC 27294, 168 h
[2] = molecular target: Voltage-gated inwardly rectifying potassium channel KCNH2 (Homo sapiens, UniProt Q12809)
Voltage-gated inwardly rectifying potassium channel KCNH2, sequence (Q12809 whole entry): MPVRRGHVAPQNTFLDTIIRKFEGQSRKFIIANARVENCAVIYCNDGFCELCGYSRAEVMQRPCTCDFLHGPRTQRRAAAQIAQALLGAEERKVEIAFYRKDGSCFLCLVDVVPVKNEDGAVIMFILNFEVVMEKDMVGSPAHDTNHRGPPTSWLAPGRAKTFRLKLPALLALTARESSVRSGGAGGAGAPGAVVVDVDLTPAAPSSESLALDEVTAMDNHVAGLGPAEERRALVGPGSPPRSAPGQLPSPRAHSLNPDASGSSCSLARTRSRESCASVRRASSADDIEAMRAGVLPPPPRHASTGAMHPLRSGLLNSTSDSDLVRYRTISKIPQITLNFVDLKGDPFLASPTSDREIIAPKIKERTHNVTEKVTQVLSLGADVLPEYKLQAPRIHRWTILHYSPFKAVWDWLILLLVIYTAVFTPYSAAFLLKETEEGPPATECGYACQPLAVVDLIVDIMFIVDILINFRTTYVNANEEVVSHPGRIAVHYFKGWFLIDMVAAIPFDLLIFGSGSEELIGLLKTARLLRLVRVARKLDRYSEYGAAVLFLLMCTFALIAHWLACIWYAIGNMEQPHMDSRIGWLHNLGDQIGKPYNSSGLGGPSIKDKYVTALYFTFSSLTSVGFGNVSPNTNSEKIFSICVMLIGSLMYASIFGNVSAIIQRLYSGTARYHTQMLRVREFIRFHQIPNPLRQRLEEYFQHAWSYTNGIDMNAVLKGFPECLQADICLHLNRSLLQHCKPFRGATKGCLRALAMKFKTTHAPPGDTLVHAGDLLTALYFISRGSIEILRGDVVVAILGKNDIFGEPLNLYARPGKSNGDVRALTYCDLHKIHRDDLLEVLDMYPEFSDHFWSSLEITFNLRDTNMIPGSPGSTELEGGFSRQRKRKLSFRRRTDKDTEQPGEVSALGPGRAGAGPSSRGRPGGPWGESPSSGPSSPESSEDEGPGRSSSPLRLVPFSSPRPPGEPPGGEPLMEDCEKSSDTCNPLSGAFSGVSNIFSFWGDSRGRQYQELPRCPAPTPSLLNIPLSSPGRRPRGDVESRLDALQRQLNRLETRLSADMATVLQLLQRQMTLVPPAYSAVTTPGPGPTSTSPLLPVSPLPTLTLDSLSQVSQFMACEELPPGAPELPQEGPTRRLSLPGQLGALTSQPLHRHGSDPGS
Description: Inhibition of human ERG by IonWorks assay

[3] = molecular target: DNA gyrase subunit A/DNA gyrase subunit B (Mycobacterium tuberculosis (strain ATCC 25618 / H37Rv), UniProt P9WG45+P9WG47); assay: Inhibition of Mycobacterium tuberculosis H37Rv DNA gyrase assessed as supercoiling of pBR322 DNA after 90 mins by agarose gel electrophoresis method
DNA gyrase subunit A/DNA gyrase subunit B, sequence (P9WG45 whole entry): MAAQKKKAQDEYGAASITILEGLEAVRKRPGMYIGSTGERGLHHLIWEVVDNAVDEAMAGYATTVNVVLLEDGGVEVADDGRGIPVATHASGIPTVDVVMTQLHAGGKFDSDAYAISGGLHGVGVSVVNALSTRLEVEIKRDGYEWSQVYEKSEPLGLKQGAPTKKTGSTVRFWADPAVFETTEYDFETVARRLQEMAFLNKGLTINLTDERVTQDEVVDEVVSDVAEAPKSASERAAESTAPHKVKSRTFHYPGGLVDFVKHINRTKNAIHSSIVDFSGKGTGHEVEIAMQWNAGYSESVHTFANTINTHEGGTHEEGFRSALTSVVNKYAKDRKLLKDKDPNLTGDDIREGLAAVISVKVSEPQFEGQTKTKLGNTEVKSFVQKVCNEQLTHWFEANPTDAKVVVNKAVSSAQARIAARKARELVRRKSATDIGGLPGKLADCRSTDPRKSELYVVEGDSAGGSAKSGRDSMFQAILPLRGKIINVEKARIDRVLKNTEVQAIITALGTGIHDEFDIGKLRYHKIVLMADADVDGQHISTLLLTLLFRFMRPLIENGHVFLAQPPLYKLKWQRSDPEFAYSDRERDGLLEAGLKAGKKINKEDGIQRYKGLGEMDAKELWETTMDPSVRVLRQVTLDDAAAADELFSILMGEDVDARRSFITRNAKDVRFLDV
DNA gyrase subunit A/DNA gyrase subunit B, sequence (P9WG47 whole entry): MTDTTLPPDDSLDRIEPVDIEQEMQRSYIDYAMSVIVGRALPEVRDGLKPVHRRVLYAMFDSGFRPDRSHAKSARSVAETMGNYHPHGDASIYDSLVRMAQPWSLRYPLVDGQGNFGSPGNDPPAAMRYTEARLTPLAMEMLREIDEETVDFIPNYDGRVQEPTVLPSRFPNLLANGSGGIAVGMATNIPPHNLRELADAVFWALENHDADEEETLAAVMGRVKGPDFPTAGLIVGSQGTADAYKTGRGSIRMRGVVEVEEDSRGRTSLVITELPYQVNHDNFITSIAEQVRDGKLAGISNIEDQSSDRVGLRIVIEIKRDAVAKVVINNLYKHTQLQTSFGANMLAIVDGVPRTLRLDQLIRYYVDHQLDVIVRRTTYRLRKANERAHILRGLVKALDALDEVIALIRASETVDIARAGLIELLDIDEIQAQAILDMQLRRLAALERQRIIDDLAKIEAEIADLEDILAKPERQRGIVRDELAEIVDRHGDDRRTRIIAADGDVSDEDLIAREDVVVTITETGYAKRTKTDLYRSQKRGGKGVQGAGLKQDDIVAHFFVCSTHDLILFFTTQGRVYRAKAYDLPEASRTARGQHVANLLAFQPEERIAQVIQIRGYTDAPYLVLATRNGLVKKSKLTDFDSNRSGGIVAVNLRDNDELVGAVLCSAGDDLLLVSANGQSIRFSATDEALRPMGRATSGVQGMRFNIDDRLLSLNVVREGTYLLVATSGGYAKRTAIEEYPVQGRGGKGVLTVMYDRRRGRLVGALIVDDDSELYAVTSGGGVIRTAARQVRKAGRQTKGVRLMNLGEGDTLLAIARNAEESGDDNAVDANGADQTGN

[4] = Solubility of the compound; type: physicochemical
Caco-2 = assay: Permeability across human Caco2 cells; type: ADME, cell-based
[5] = tested on: Mycobacterium tuberculosis; assay: Antimycobacterial activity against Mycobacterium tuberculosis infected in human THP1 cells assessed as bacteria killing effect at 1 to 16 ug/ml; type: functional, THP-1
[6] = tested on: Mycobacterium tuberculosis; assay: Antimycobacterial activity against Mycobacterium tuberculosis in acute mouse model of tuberculosis assessed as bacteria killing effect at 100 mg/kg, po bid administered for 10 days relative to early control; type: functional
[7] = tested on: Mycobacterium tuberculosis; assay: Antimycobacterial activity against Mycobacterium tuberculosis infected in human THP1 cells assessed as bacteria killing effect; type: functional, organism-based; settings: THP-1

| Structure (SMILES) | MIC [1] [µM] | also measured |
| --- | --- | --- |
| Cc1ncc(CNC2CCN(CCn3c(=O)ccc4ncc(Oc5ccc(S(N)(=O)=O)cc5)cc43)CC2)cc1Cl | 0.06 (≈ 0.035 µg/mL) | IC50 [2]: 82 µM |
| O=C1COc2ccc(CNC3CCN(CCn4c(=O)ccc5ccc(Oc6cncnc6)nc54)CC3)nc2N1 | 0.25 (≈ 0.132 µg/mL) | IC50 [3]: 173 nM; IC50 [2]: > 224 µM |
| Cc1cc2[nH]c(C3CCN(CCn4c(=O)ccc5ncc(Oc6ccc(S(N)(=O)=O)cc6)cc54)CC3)nc2cc1C#N | 0.25 (≈ 0.146 µg/mL) | IC50 [2]: > 33 µM |
| O=C1COc2ccc(CNC3CCN(CCn4c(=O)ccc5ncc(Oc6cncc(F)c6)cc54)CC3)nc2N1 | 0.25 (≈ 0.136 µg/mL) |  |
| O=C1COc2ccc(CNC3CCN(CCn4c(=O)ccc5ncc(OCc6cccnn6)cc54)CC3)nc2N1 | 1 (≈ 0.543 µg/mL) |  |
| O=C1COc2ccc(CN[C@@H]3CCN(CCn4c(=O)ccc5ncc(Oc6ccon6)cc54)C[C@@H]3F)nc2N1 | 0.25 (≈ 0.134 µg/mL) | solubility [4]: 665 µM (≈ 356 µg/mL); permeability (Caco-2): permeable |
| O=C1COc2ccc(CNC3CCN(CCn4c(=O)ccc5ncc(O[C@H]6CCOC6)cc54)CC3)nc2N1 | 0.5 (≈ 0.26 µg/mL) |  |
| O=C1COc2ccc(CNC3CCN(CCn4c(=O)ccc5ncc(OCc6ccccn6)cc54)CC3)nc2N1 | 0.5 (≈ 0.271 µg/mL) |  |
| COc1cnc2ccc(=O)n(CCN3CCC(c4nc5cc(Cl)ccc5[nH]4)CC3)c2c1 | 0.25 (≈ 0.109 µg/mL) |  |
| NS(=O)(=O)c1ccc(Oc2cnc3ccc(=O)n(CCN4CCC(c5nc6cc(Cl)ccc6[nH]5)CC4)c3c2)cc1 | 0.19 (≈ 0.11 µg/mL) | permeability (Caco-2): impermeable |
| O=C1COc2ccc(CNC3CCN(CCn4c(=O)ccc5ncc(Oc6ccon6)cc54)CC3)nc2N1 | 0.25 (≈ 0.129 µg/mL) | solubility [4]: 665 µM (≈ 344 µg/mL); permeability (Caco-2): permeable |
| Cc1ncc(CNC2CCN(CCn3c(=O)ccc4ncc(F)cc43)CC2)cc1Cl | 0.19 (≈ 0.0817 µg/mL) | IC50 [3]: 250 nM |
| COc1ccc2ccc(=O)n(CCN3CCC(NCc4ccc5c(n4)NC(=O)CO5)CC3)c2n1 | 0.25 (≈ 0.116 µg/mL) | IC50 [2]: 23 µM |
| Cn1ccc(COc2cnc3ccc(=O)n(CCN4CCC(NCc5ccc6c(n5)NC(=O)CO6)CC4)c3c2)n1 | 0.25 (≈ 0.136 µg/mL) |  |
| O=C1COc2ccc(CNC3CCN(CCn4c(=O)ccc5ccc(Oc6ccon6)nc54)CC3)nc2N1 | 0.25 (≈ 0.129 µg/mL) |  |
| COc1c(N2C[C@@H]3CCCN[C@@H]3C2)c(F)cc2c(=O)c(C(=O)O)cn(C3CC3)c12 [MOXIFLOXACIN] | 0.13 (≈ 0.0522 µg/mL) |  |
| O=C1COc2ccc(CNC3CCN(CCn4c(=O)ccc5ccc(Cl)nc54)CC3)nc2N1 | 0.19 (≈ 0.0891 µg/mL) | IC50 [3]: 110 nM |
| O=C(O)c1cn(C2CC2)c2cc(N3CCNCC3)c(F)cc2c1=O [CIPROFLOXACIN] | 0.5 (≈ 0.166 µg/mL) |  |
| O=C1COc2ccc(CNC3CCN(CCn4c(=O)ccc5ncc(O[C@@H]6CCOC6)cc54)CC3)nc2N1 | 0.25 (≈ 0.13 µg/mL) |  |
| Cc1ncc(CNC2CCN(CCn3c(=O)ccc4ncc(Oc5ccc(S(N)(=O)=O)cc5)cc43)CC2)cc1C#N | 0.06 (≈ 0.0344 µg/mL) | IC50 [2]: > 100 µM |
| NS(=O)(=O)c1ccc(Oc2ccc3ccc(=O)n(CCN4CCC(NCc5ccc6c(n5)NC(=O)CO6)CC4)c3n2)cc1 | 0.03 (≈ 0.0182 µg/mL) | IC50 [2]: > 100 µM; permeability (Caco-2): impermeable |
| O=C1COc2ccc(CN[C@@H]3CCN(CCn4c(=O)ccc5ncc(Oc6cccnc6)cc54)C[C@@H]3F)nc2N1 | 0.25 (≈ 0.136 µg/mL) | LCK [5]: 1; solubility [4]: 665 µM (≈ 363 µg/mL); LCK [6]: >1; Activity [7]: Dose-dependent effect; IC50 [3]: 800 nM; permeability (Caco-2): permeable |
| O=C1COc2ccc(CNC3CCN(CCn4c(=O)ccc5ccc(Oc6cccnc6)nc54)CC3)nc2N1 | 0.06 (≈ 0.0317 µg/mL) | IC50 [3]: 104 nM |
| NNC(=O)c1ccncc1 [ISONIAZID] | 0.06 (≈ 0.00823 µg/mL) |  |
| O=C1COc2ccc(CNC3CCN(CCn4c(=O)ccc5ncc(Oc6cccnc6)cc54)CC3)nc2N1 | 0.06 (≈ 0.0317 µg/mL) | solubility [4]: 665 µM (≈ 351 µg/mL); permeability (Caco-2): permeable |
